The text below walks through data of US11311610B2, “Immune-modulating agents and uses therefor” (UNIVERSITY OF TECHNOLOGY SYDNEY, priority 2010, dated 2022).

Where a SMILES comes first, the peptide text is derived from it.

For series [1] the following is noted: established T1D, early randomized trials; cited from earlier work.
Series [2] concerns ATPase activity associated with lysosomal membranes (equivalent to vATPase activity). In words: ATPase activity of enriched lysosomal membranes. Format: biochemical, murine. The following applies: lysosomal membranes from RAW264.7 macrophage lysates. Here is the method: FIG. 17 is a graphical representation showing that FhHDM-1 P3 inhibits ATPase activity associated with lysosomal membranes in a concentration-dependent manner. A cellular fraction enriched for lysosomes was prepared by sequential centrifugation of RAW264.7 macrophage lysates. The lysosomal membranes were recovered and assayed (with or without HDM peptides) for ATPase activity using a commercially available kit.
FIG. 18 is a diagrammatic representation showing a sequence alignment of various synthetic HDM peptides. The amphipathic helix is shaded in grey as are the mutated residues in peptides nonHP and 2Pro. NonHP is a variant of FhHDM-1 P3 in which the hydrophobic face of the FhHDM-1 amphipathic helix was removed. 2Pro is a variant of FhHDM-1 P3 in which two prolines substitutions were incorporated to disrupt the alpha-helix. Cons_p3 is a consensus peptide corresponding to various FhHDM-1 homologs. All peptides in the alignment were tested for their ability to inhibit the ATPase activity associated with enriched lysosomal membranes (prepared from RAW macrophages). Those with inhibitory activity are shown in bold text.
A cellular fraction enriched for lysosomes was prepared by sequential centrifugation of RAW264.7 macrophage lysates. The lysosome pellet was extracted with water and the resulting lysosomal membranes were recovered and assayed (with or without HDM peptides) for ATPase activity using a commercially available kit.

Series [3] has as its system interaction of LPS with LPS-binding protein (LBP). In words: Assay for the interaction of LPS with LBP (ELISA). Further details: species or system mouse. The following applies: 5 μg/well, 1 h before 10% sera; ELISA with anti-LBP. Here is the method:
(§1) FIG. 9 is a graphical representation showing LPS neutralization by FhHDM-1. The ability of FhHDM-1 (Δ), FhHDM-1 p1 (●) or FhHDM-1 p3 (▪) to bind to LPS was investigated by (A) incubating a range of concentrations of proteins (0.02-2 μg/well) in an LPS-coated (100 ng/well) microtitre plate. Bound peptides were detected by ELISA using rabbit anti-FhHDM-1 as a primary antibody. (B) FhHDM-1 or derived peptides (0.1 μg) were incubated in the presence of LPS (0.05-5 μg/well) and bound peptides measured as described above. Binding of peptides to the LPS-immobilized plates was expressed as a percentage of that measured for 2 μg (for panel A) or 0.1 μg (for panel B) of FhHDM-1. Data are the means±SD from three separate experiments. (C) FhHDM-1 and FhHDM-1 p3 but not FhHDM-1 p1 reduced the interaction between LPS and LBP as effectively as LL-37. LPS-coated microtitre plates were incubated with 5 μg/well of LL-37, FhHDM-1 or derived peptides for 1 h prior to the addition of 10% human sera in PBS. Interaction of LBP with LPS was measured by ELISA using an anti-LBP primary antibody and expressed as a percentage of that detected for 10% sera in the absence of added peptides. Data are the mean±SD of three separate experiments. Statistical significance was calculated using the student t-test and represent a comparison to the binding of 10% sera to immobilized LPS. (D) Binding of FITC-conjugated LPS to RAW264.7 cells was inhibited by LL-37, FhHDM-1 and peptides. […] The binding of FITC-LPS was analyzed by flow cytometry. LPS binding was expressed as a percentage of the mean fluorescence obtained for the addition of FITC-LPS to cells in the absence of peptides. […] Two hours later, sera was collected and serum levels of TNF and (F) IL-10 measured by ELISA. (G) Peritoneal macrophages were isolated, cultured unstimulated in media overnight and then levels of TNF and (H) IL-10 in the culture measured by ELISA. […]
The ability of FhHDM-1 and derived peptides to block the interaction of LPS with LPB was assessed by ELISA using an anti-LBP primary antibody. […]

The next series concerns RAW264.7 cells. In words: Binding of FITC-conjugated LPS to RAW 264.7 cells (flow cytometry). Format: cell-based, murine. The following applies: 0.1-10 μg/mL, 20 min at 4° C. Here is the method:
as §1
The effect of FhHDM-1 and derived peptides on the binding of FITC-LPS to CD14+ cells was determined by flow cytometry of the murine macrophage cell line RAW264.7. […]
On the technique in general: In flow cytometry, cells or beads pass a laser one at a time.

For series [4], the system named is LPS-induced inflammatory response. In words: Endotoxin (LPS)-induced inflammation in mice, co-injection. Format: in vivo, BALB/c mice. How it is done: FIG. 9 is a graphical representation showing LPS neutralization by FhHDM-1. The ability of FhHDM-1 (Δ), FhHDM-1 p1 (●) or FhHDM-1 p3 (▪) to bind to LPS was investigated by (A) incubating a range of concentrations of proteins (0.02-2 μg/well) in an LPS-coated (100 ng/well) microtitre plate. Bound peptides were detected by ELISA using rabbit anti-FhHDM-1 as a primary antibody. (B) FhHDM-1 or derived peptides (0.1 μg) were incubated in the presence of LPS (0.05-5 μg/well) and bound peptides measured as described above. Binding of peptides to the LPS-immobilized plates was expressed as a percentage of that measured for 2 μg (for panel A) or 0.1 μg (for panel B) of FhHDM-1. Data are the means±SD from three separate experiments. (C) FhHDM-1 and FhHDM-1 p3 but not FhHDM-1 p1 reduced the interaction between LPS and LBP as effectively as LL-37. LPS-coated microtitre plates were incubated with 5 μg/well of LL-37, FhHDM-1 or derived peptides for 1 h prior to the addition of 10% human sera in PBS. Interaction of LBP with LPS was measured by ELISA using an anti-LBP primary antibody and expressed as a percentage of that detected for 10% sera in the absence of added peptides. Data are the mean±SD of three separate experiments. Statistical significance was calculated using the student t-test and represent a comparison to the binding of 10% sera to immobilized LPS. (D) Binding of FITC-conjugated LPS to RAW264.7 cells was inhibited by LL-37, FhHDM-1 and peptides. RAW264.7 cells (5×10^5 cells/mL) were incubated with 1 μg/mL of FITC-conjugated LPS in the presence of increasing concentrations (0.1-10 μg/mL) of FhHDM-1, FhHDM-1 p1 and FhHDM-1 p3 and LL-37 in RPMI 1640 containing 10% FBS for 20 min at 4° C. The binding of FITC-LPS was analyzed by flow cytometry. LPS binding was expressed as a percentage of the mean fluorescence obtained for the addition of FITC-LPS to cells in the absence of peptides. Data are the mean±SD of two independent experiments. (E) FhHDM-1 and FhHDM-1 p3 both suppress the inflammatory response induced by LPS in mice. BALB/c mice were intra-peritoneally injected with 1 μg of LPS alone or combined with 1 μg of FhHDM-1, FhHDM-1 p3 or LL-37. Two hours later, sera was collected and serum levels of TNF and (F) IL-10 measured by ELISA. (G) Peritoneal macrophages were isolated, cultured unstimulated in media overnight and then levels of TNF and (H) IL-10 in the culture measured by ELISA. Data are the mean±SD of six mice in each group. Statistical significance represents a comparison to the levels of cytokines secreted by mice given LPS only.
Human Defense peptides protect against harmful inflammatory responses by preventing activation of macrophages by classical TLR ligands such as LPS (Scott et al. 2002, J. Immunol. 169, 3883-3891). Here, the inventors employed a murine model to examine whether FhHDM-1 and derived peptides can suppress LPS-induced Th1 inflammation. BALB/c mice were injected intra-peritoneally with 1 μg of LPS alone or LPS combined with 1 μg of FhHDM-1, FhHDM-1 p3 or LL-37. Two hours later, sera was collected and serum levels of the pro-inflammatory mediators TNF and IL-10 were measured by ELISA. […] Because macrophages are the main source of pro-inflammatory mediators in this murine model of inflammation, peritoneal macrophages were isolated from treated mice (LPS±FhHDM-1, peptides or LL-37 as described above), cultured unstimulated in media overnight and then levels of TNF and IL-10 in the culture media were measured by ELISA.
Six week-old female BALB/c mice were purchased from ARC (Perth, Australia) and maintained according to the guidelines of the University of Technology Sydney Animal Care and Ethics committee. For the analysis for endotoxin-induced inflammation, mice were intra-peritoneally injected with 1 μg of E. coli LPS (serotype 111:B4; Sigma) either with or without 1 μg FhHDM-1 or derived peptides. After 2 h mice were sacrificed by cervical dislocation. […]

Another series has as its system RAW macrophages. In words: ATP induced macrophage cell death (LDH release). It is filed as cell-based, murine. The following applies: 20 μg/mL pre-treatment 1 h, then ATP 5 mM 2 h. How it is done: FIG. 16 is a graphical representation showing that FhHDM-1 P3 prevents ATP induced cell death in RAW macrophages. RAW macrophages were pretreated with either FhHDM-1 (20 μg/mL) or FhHDM-1 p3 (20 μg/mL) for 1 h, then washed and cultured in the presence of ATP (5 mM) for 2 h. Cell death (% cytotoxicity) was quantified according to the amount of LDH released by the cells into culture media.
Raw macrophages were pre-treated with either HDM (20 μg/mL) or FhHDM-1 P3 (20 μg/mL) for 1 h, washed and then cultured in the presence of ATP (5 mM) for 2 h. The culture supernatants were collected and assayed for LDH activity with an LDH release kit. The amount of LDH release by cells treated with ATP only was used to represent 100% cytotoxicity.

Setting [5] is: BALB/c mice, 1 μg LPS mixed with 1 μg i.p., 2 h.
Setting [6] is: macrophages from treated mice, cultured unstimulated overnight.

Consider `Cn1cnc([N+](=O)[O-])c1Sc1ncnc2nc[nH]c12` [azathioprine], for which, in series [1], the “treated patients becoming independent of insulin therapy” value is given as “approximately 50%”.

For the compound “HDMp2: SEQ ID NO:122, 27 aa, comprising a shorter amphipathic helix than FhHDM-1 peptide 3 (NLGEKITEVITILLNRLTDRLEKYAGN; FhHDM-1 peptide 2)”, the “ATPase activity associated with lysosomal membranes” value in series [2] is “inhibitory”.

Take LL-37 [reference compound]: in series [3], the “interaction between LPS and LBP” value is recorded as “significantly reduced”. Also, in the series with RAW264.7 cells, the “binding of FITC-LPS to RAW264.7 macrophages” value was “most strongly inhibited”. For the same compound, in series [4] (setting [5]), the “serum levels of IL-10” value is listed as “significant reduction” and the “serum levels of TNF” value is listed as “significant reduction”. Besides, in series [4] (setting [6]), the “LPS-induced secretion of IL-10 from peritoneal macrophages” value was “significantly inhibited” and the “TNF secreted from peritoneal macrophages” value is recorded as “did not significantly reduce”.

For the compound `CC[C@H](C)[C@H](NC(=O)[C@H](CCCCN)NC(=O)[C@H](CCC(=O)O)NC(=O)CNC(=O)[C@H](CC(C)C)NC(=O)[C@H](CC(N)=O)NC(=O)[C@H](CC(=O)O)NC(=O)[C@H](CCCCN)NC(=O)[C@H](C)NC(=O)[C@H](CC(C)C)NC(=O)[C@H](Cc1ccc(O)cc1)NC(=O)[C@H](C)NC(=O)[C@H](CCSC)NC(=O)[C@H](C)N)C(=O)N[C@H](C(=O)N[C@@H](CCC(=O)O)C(=O)N[C@H](C(=O)N[C@H](C(=O)N[C@H](C(=O)N[C@H](C(=O)N[C@@H](CC(C)C)C(=O)N[C@@H](CC(C)C)C(=O)N[C@@H](CC(N)=O)C(=O)N[C@@H](CCCNC(=N)N)C(=O)N[C@@H](CC(C)C)C(=O)N[C@H](C(=O)N[C@@H](CC(=O)O)C(=O)N[C@@H](CCCNC(=N)N)C(=O)N[C@@H](CC(C)C)C(=O)N[C@@H](CCC(=O)O)C(=O)N[C@@H](CCCCN)C(=O)N[C@@H](Cc1ccc(O)cc1)C(=O)N[C@@H](C)C(=O)NCC(=O)O)[C@@H](C)O)[C@@H](C)CC)[C@@H](C)O)[C@@H](C)CC)C(C)C)[C@@H](C)O` [FhHDM-1 p3] (H-AMAYLAKDNLGEKITEVITILLNRLTDRLEKYAG-OH), the “LDH release induced by ATP (cytotoxicity of ATP)” value with RAW macrophages was “inhibited LDH release”.
